Measurements reported in patent US10752624B2, “Kinase inhibitors” (Origenis GmbH, priority 2012, dated 2020).

Target: LRRK2 (Homo sapiens, UniProt Q5S007)
Test: LRRK2-LRRK2 G2019S-Assay (LanthaScreen Eu Kinase Binding Assay)
Details: 5 nM LRRK2, 10 nM tracer 236, 2 nM EU-Anti-GST antibody, 1 h at RT; read-out: LRRK2 Activities: IC50
Summary of the method: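 In a TR-FRET tracer displacement assay, LRRK2 or its mutants at 5 nM were mixed with 2 nM Eu-anti-GST antibody and 10 nM tracer 236 in kinase buffer A for 1 h at RT. The 665/615 nm emission ratio was plotted against inhibitor concentration, and IC50 came from a variable-slope sigmoidal fit.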

LRRK2, sequence (Q5S007 970-2527 limits assumed): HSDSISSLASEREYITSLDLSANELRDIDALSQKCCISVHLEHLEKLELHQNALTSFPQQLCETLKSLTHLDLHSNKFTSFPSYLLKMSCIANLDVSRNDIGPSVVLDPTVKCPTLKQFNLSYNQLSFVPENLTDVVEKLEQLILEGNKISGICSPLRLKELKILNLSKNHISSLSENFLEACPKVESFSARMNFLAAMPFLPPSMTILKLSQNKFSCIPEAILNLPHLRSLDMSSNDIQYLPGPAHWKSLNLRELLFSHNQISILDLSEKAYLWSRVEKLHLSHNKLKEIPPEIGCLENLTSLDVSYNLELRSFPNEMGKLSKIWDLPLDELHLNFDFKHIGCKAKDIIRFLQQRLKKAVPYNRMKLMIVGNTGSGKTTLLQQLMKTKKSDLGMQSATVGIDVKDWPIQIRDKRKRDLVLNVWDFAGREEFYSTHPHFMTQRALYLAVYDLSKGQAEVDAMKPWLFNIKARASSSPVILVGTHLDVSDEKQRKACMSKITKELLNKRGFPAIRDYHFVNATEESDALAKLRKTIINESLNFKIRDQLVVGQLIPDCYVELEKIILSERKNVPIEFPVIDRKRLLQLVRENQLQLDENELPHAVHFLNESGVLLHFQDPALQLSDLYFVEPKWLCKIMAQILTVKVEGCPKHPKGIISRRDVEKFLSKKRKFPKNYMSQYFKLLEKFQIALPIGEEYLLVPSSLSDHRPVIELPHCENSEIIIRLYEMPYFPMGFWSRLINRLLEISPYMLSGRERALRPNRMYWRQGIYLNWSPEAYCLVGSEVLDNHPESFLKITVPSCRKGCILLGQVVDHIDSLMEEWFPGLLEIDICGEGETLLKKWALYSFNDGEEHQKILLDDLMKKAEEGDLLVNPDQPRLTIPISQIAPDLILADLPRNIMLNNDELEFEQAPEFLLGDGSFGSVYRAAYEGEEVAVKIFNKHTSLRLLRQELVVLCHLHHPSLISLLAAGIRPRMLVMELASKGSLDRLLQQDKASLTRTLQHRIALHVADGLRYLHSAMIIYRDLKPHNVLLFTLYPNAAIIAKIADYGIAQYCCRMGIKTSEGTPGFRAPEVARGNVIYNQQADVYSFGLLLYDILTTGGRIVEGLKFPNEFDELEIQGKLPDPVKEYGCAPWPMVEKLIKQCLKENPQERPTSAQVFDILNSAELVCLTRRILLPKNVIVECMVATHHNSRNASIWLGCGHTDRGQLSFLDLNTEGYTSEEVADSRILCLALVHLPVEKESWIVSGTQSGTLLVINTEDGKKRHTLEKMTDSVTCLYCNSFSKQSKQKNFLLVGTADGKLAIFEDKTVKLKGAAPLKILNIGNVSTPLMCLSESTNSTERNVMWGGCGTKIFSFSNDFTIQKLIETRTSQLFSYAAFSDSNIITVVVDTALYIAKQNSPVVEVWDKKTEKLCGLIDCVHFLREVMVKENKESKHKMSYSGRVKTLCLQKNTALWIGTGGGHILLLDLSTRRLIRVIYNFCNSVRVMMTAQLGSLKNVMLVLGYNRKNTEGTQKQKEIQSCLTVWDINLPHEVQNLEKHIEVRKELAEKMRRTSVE

SMILES | IC50
COc1cccc2nc(Nc3cccc(C(C)(C)C#N)c3)c3[nH]ncc3c12 [Example 33, 2-(3-((9-methoxy-3H-pyrazolo[3,4-c]quinolin-4-yl)amino)phenyl)-2-methylpropanenitrile] | 100 to 1000 nM
COc1ccc2nc(Nc3cccc(C(C)(C)C#N)c3)c3n[nH]cc3c2c1 [Example 24, 2-(3-((8-methoxy-2H-pyrazolo[3,4-c]quinolin-4-yl)amino)phenyl)-2-methylpropanenitrile] | 100 to 1000 nM
COc1cc(Nc2nc3cccc(F)c3c3cn[nH]c23)ccc1N1CCOCC1 [Example 31, 9-fluoro-N-(3-methoxy-4-morpholinophenyl)-3H-pyrazolo[3,4-c]quinolin-4-amine] | 100 to 1000 nM
COc1ccc2nc(Nc3ccc(-c4ncco4)cc3)c3n[nH]cc3c2c1 [Example 36, 8-methoxy-N-(4-(oxazol-2-yl)phenyl)-2H-pyrazolo[3,4-c]quinolin-4-amine] | 100 to 1000 nM
COc1ccc2nc(Nc3ccc(C(=O)N4CCOCC4)c(F)c3)c3n[nH]cc3c2c1 [Example 34, (2-fluoro-4-((8-methoxy-2H-pyrazolo[3,4-c]quinolin-4-yl)amino)phenyl)(morpholino)methanone] | 10 to 100 nM
COc1cccc2nc(Nc3ccc(F)c(S(C)(=O)=O)c3)c3[nH]ncc3c12 [Example 32, N-(4-fluoro-3-(methylsulfonyl)phenyl)-9-methoxy-3H-pyrazolo[3,4-c]quinolin-4-amine] | 10 to 100 nM
CC(=O)N1CCN(c2ccc(Nc3nc4c(F)cccc4c4cn[nH]c34)cc2)CC1 [Example 53, 1-(4-(4-((6-fluoro-3H-pyrazolo[3,4-c]quinolin-4-yl)amino)phenyl)piperazin-1-yl)ethan-1-one] | 100 to 1000 nM

Further lines, results first:

IC50 | SMILES
100 to 1000 nM | CC(C)n1ncc(Nc2nc3ccc(S(C)(=O)=O)cc3c3cn[nH]c23)c1C(N)=O [Example 251, 1-isopropyl-4-((8-(methylsulfonyl)-3H-pyrazolo[3,4-c]quinolin-4-yl)amino)-1H-pyrazole-5-carboxamide]
10 to 100 nM | COCCn1ncc(Nc2nc3cc(S(C)(=O)=O)ccc3c3cn[nH]c23)c1Cl [Example 243, N-(5-chloro-1-(2-methoxyethyl)-1H-pyrazol-4-yl)-7-(methylsulfonyl)-3H-pyrazolo[3,4-c]quinolin-4-amine]
10 to 100 nM | COCCn1cc(Nc2nc3ccc(S(C)(=O)=O)cc3c3cn[nH]c23)c(C#N)n1 [Example 274, 1-(2-methoxyethyl)-4-((8-(methylsulfonyl)-3H-pyrazolo[3,4-c]quinolin-4-yl)amino)-1H-pyrazole-3-carbonitrile]
100 to 1000 nM | COc1ccc(Nc2nc3cccc(S(C)(=O)=O)c3c3cn[nH]c23)cc1OC [Example 99, N-(3,4-dimethoxyphenyl)-9-(methylsulfonyl)-3H-pyrazolo[3,4-c]quinolin-4-amine]
10 to 100 nM | COCCn1ncc(Nc2nc3cccc(OC)c3c3cn[nH]c23)c1F [Example 276, N-(5-fluoro-1-(2-methoxyethyl)-1H-pyrazol-4-yl)-9-methoxy-3H-pyrazolo[3,4-c]quinolin-4-amine]
10 to 100 nM | COc1ccc2nc(Nc3ccc(N4CCC(O)CC4)cc3)c3[nH]ncc3c2c1 [Example 296, 1-(4-((8-methoxy-3H-pyrazolo[3,4-c]quinolin-4-yl)amino)phenyl)piperidin-4-ol]
10 to 100 nM | CS(=O)(=O)c1ccc2c(c1)nc(Nc1cnn(C3CCOCC3)c1)c1[nH]ncc12 [Example 169, 7-(methylsulfonyl)-N-(1-(tetrahydro-2H-pyran-4-yl)-1H-pyrazol-4-yl)-3H-pyrazolo[3,4-c]quinolin-4-amine]
10 to 100 nM | CS(=O)(=O)c1ccc2nc(Nc3cc(S(C)(=O)=O)sc3Cl)c3[nH]ncc3c2c1 [Example 230, N-(2-chloro-5-(methylsulfonyl)thiophen-3-yl)-8-(methylsulfonyl)-3H-pyrazolo[3,4-c]quinolin-4-amine]
10 to 100 nM | COCCn1cc(Nc2nc3ccc(S(C)(=O)=O)cc3c3cn[nH]c23)cn1 [Example 113, N-(1-(2-methoxyethyl)-1H-pyrazol-4-yl)-8-(methylsulfonyl)-3H-pyrazolo[3,4-c]quinolin-4-amine]
